Experiments:
α4/β1 integrin = α4/β1 integrin (Homo sapiens, UniProt P05556+P13612); assay: Inhibition of α4/β1 binding to VCAM-1
[1] = test system: airway inflammation in the atopic primate; assay: Airway inflammation in the atopic primate, oral R411 (FIG. 4); type: in vivo; settings: oral administration, atopic primate (FIG. 4)
[2] = test system: mild/moderate asthmatics not treated with inhaled corticosteroids; assay: ARES study: R411 monotherapy, 12 week treatment period; type: in vivo, human; settings: for Asthma control Questionnaire (Total Score), change from baseline / Morning asthma symptoms, change from baseline / Rescue β2-agonist use (puffs/d), change from baseline: ITT population
Experimental: The ARES study illustrated in FIG. 3 was designed to evaluate the safety and efficacy of monotherapy R411 over a 12 week treatment period in 480 mild/moderate asthmatics not treated with inhaled corticosteroids. Patients were randomized to one of four cohorts: 50, 200, 600 mg QD R411, or placebo (n=120/group). The primary endpoint in the study was change in FEV1 from baseline, and secondary endpoints included PEFR, asthma exacerbations, β2-agonist use, asthma control questionnaire, asthma symptom scores, and nocturnal awakenings. Small airway inflammation represents a clinically significant component of moderate to severe asthma that is not adequately controlled by currently available inhaled corticosteroids therapies.
ARES study evaluated the safety and efficacy of monotherapy with R411 over a 12-week treatment period in 479 mild/moderate asthmatics not treated with inhaled corticosteroids. Patients were randomized to one of four cohorts: 50, 200, 600 mg once daily R411, or placebo.

α4/β7 integrin = molecular target: T1, α4/β7 integrin (Homo sapiens, UniProt P13612+P26010); assay: Inhibition of α4/β7 binding to MadCAM-1
T1 sequence (P13612 34-1032): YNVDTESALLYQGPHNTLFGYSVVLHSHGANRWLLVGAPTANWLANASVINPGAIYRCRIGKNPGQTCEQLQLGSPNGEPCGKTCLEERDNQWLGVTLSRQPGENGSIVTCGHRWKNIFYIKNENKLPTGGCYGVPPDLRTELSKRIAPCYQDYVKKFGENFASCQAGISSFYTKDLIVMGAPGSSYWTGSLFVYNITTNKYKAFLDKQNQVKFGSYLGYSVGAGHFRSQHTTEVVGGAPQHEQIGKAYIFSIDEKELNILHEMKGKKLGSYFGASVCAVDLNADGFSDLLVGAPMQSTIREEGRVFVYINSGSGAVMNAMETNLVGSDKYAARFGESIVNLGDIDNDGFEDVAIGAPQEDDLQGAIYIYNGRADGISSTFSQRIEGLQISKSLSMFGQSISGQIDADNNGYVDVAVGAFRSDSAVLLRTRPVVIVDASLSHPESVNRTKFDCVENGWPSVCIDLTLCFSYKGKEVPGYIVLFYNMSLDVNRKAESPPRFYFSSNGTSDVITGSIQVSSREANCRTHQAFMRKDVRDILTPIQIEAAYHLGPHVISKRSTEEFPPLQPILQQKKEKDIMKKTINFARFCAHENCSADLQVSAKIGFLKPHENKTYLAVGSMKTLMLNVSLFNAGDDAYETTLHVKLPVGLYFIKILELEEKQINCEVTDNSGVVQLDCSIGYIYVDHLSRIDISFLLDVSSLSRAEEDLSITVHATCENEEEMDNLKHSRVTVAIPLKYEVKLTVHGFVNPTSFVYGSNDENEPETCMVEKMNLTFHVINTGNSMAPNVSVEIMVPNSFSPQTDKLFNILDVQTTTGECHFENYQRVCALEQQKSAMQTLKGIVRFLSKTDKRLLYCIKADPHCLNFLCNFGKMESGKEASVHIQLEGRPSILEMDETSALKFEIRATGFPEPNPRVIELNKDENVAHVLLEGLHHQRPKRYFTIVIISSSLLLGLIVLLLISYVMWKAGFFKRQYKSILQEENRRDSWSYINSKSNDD
T1 sequence (P26010 20-798): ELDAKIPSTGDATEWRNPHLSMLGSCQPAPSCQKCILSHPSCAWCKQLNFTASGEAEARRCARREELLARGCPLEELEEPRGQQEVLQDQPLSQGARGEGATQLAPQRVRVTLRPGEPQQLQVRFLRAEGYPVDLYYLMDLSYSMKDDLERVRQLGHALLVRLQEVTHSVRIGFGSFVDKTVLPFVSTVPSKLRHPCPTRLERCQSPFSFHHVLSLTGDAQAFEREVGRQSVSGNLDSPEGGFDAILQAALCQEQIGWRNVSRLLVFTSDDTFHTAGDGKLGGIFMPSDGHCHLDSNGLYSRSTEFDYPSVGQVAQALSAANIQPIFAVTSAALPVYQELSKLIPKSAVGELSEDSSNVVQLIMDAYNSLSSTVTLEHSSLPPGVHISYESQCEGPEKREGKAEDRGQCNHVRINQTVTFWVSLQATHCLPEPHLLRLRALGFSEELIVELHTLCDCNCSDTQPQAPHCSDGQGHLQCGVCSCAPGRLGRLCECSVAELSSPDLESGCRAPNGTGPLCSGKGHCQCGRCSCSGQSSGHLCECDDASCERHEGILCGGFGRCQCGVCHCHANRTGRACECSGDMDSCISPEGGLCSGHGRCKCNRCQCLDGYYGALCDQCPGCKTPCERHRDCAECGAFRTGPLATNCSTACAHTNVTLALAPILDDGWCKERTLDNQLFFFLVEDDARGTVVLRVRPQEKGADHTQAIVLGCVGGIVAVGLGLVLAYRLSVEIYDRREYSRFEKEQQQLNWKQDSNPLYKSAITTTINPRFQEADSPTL

[3] = 12-week monotherapy, versus placebo

α4/β1 integrin, sequence (P05556 21-798, one chain of several): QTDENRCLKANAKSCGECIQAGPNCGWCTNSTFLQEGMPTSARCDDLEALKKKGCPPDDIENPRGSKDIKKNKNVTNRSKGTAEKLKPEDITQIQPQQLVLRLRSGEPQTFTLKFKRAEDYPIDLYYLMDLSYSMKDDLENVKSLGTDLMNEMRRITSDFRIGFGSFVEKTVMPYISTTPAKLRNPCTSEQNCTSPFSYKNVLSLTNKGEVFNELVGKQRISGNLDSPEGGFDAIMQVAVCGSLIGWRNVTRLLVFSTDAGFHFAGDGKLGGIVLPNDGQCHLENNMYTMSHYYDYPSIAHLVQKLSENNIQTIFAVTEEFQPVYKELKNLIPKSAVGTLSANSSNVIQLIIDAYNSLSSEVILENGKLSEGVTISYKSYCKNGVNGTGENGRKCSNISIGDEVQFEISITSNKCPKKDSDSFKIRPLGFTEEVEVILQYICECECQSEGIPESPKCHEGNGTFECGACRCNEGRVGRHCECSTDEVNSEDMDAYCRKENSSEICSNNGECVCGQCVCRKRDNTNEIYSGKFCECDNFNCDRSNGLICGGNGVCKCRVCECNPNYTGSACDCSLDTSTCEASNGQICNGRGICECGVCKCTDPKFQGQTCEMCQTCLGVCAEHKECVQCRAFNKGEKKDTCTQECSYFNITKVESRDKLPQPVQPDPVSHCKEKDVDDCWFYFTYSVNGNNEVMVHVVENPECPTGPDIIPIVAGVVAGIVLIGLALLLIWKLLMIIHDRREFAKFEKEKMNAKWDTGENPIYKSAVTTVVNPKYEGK

binding of α4/β1 to vascular cell adhesion molecule (VCAM-1) (α4/β1 integrin): inhibits
effectiveness against α4/β1 integrin (α4/β1 integrin): effective
binding of α4/β7 to MadCAM-1 (α4/β7 integrin): inhibits
effectiveness against α4/β7 integrin (α4/β7 integrin): effective
SMILES: CCN(CC)CCOC(=O)[C@H](Cc1ccc(NC(=O)c2c(Cl)cccc2Cl)cc1)NC(=O)c1c(C)cccc1Cl [R411, N-(2-Chloro-6-methylbenzoyl)-4-[(2,6-dichlorobenzoyl)amino]-L-phenylalanine-2-(diethylamino)ethyl ester]
airway inflammation [1]: attenuates
decrease in daytime asthma symptom score [2, 3]: Statistically significant improvements
decrease in nocturnal symptom score [2, 3]: Statistically significant improvements
Asthma control Questionnaire (Total Score), change from baseline ([2]; R411 200 mg once daily): −0.29 [2.08] Total Score
Morning asthma symptoms, change from baseline ([2]; R411 200 mg once daily): −0.34*[1.55]
Rescue β2-agonist use (puffs/d), change from baseline ([2]; R411 200 mg once daily, N = 117): −0.36/[3.04] puffs/d
Asthma control Questionnaire (Total Score), change from baseline ([2]; R411 600 mg once daily): −0.23 [2.00] Total Score
Morning asthma symptoms, change from baseline ([2]; R411 600 mg once daily): −0.33*[1.57]
Rescue β2-agonist use (puffs/d), change from baseline ([2]; R411 600 mg once daily, N = 119): −0.41*/[3.11] puffs/d
Asthma Control Questionnaire Scores ([2]; compared to placebo): Improvement
Asthma Quality-of-Life ([2]; compared to placebo): Improvement
